Experimental data: US11331364B2, “Use for JNK inhibitor molecules for treatment of various diseases” (Xigen Inflammation Ltd., priority 2014, dated 2022)
Square brackets hold non-standard residues; d marks the D form. Peptide text beside a SMILES is read from it.

Key:
[1] = test system: Primary Rat Whole Blood Cells; experiment: LPS-induced TNFα release in rat whole blood; type: cell-based; conditions: LPS 3 ng/ml; 1, 3, 10 μM
Experimental: Given are the results for the control, 1 μM of SEQ ID NO: 172, 3 μM of SEQ ID NO: 172, and 10 μM of SEQ ID NO: 172 at different levels of LPS (ng/ml).
Whole blood is collected from anesthetized rat or human healthy volunteers using a venipuncture connected to a pre-labeled vacuum tube containing sodium citrate. Tubes are gently mixed by inversion 7-8 times; and are then kept at RT until stimulation. JNK inhibitor of SEQ ID NO: 172 is prepared 6 times concentrated in PBS, and 30 μl/well of mix is added into 96-well plate. Whole blood is diluted by 1:2 in PBS and 120 μl of diluted blood is added in each well where either PBS alone or JNK inhibitor of SEQ ID NO: 172 has been previously added. Whole blood is incubated at 37° C.; 85 rpm (Stuart Orbital incubator SI500) for 60 min. Activators (LPS) are the prepared, 30 μl/well of LPS, 6 times concentrated. After 60 min incubation, LPS is added to the blood, blood is mixed by pipetting up and down, and then kept for 4 h under agitation (85 rpm), at 37° C. After the 4 h incubation, the plates are centrifuged at about 770 g, 4° C. for 15 min in a pre-cooled centrifuge. […] Cytokine (IL-6, IL-2, IFNγ and TNFα) were then measured using standard Elisa kits (e.g. from R&D Systems: DuoSet Elisas; or from BD Biosciences: BD Opteia Set Elisa). Results are expressed as pg/ml of supernatant of the measured cytokine.

hJNK1 = target: T1, hJNK1 (Homo sapiens, UniProt P45983); experiment: AlphaScreen assay, inhibition of JNK1 phosphorylation of c-Jun substrate; type: biochemical; conditions: in comparison to L-TAT-IB1; FIG. 4 (JNK1, JNK2, JNK3 AlphaScreen)
T1 construct: His; purchased Upstate 14-327
T1 sequence (P45983 1-384 isoform P45983-2): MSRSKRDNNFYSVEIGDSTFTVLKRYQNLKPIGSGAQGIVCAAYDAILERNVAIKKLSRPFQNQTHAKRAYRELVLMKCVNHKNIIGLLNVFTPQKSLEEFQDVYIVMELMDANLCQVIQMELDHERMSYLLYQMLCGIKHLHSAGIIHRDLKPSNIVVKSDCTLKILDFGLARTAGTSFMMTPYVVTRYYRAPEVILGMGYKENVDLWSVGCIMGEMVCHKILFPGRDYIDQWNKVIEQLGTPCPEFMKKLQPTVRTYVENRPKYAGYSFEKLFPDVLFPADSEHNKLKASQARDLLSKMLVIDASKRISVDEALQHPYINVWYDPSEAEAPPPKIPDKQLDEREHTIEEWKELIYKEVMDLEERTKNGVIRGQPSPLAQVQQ
Experimental: In the following a standard operating procedure will be set forth describing how the Inhibitory efficacy of JNK inhibitors according to the present invention was measured. The method allows to measure in vitro, in a non radioactive standardized assay, the ability of a candidate compound to decrease the phosphorylation of the c-Jun specific substrate by JNK. Moreover, it will be illustrated how to determine the inhibitory effect (IC50) and the Ki of a chosen compound for JNK. […] And a person skilled in the art will certainly understand how to adapt the below methods for his specific purposes and needs.
AlphaScreen Reagent and Plate: • His-JNK1 (ref 14-327, Upstate, 10 μg in 100 μl: concentration: 2.2 μM) 5 nM final • His-JNK2 (ref 14-329, Upstate, 10 μg in 100 μl: concentration: 2 μM) 5 nM final • His-JNK3 (ref 14-501, Upstate, 10 μg in 100 μl: concentration: 1.88 μM) 5 nM final • Anti-Phospho-cJun (ref 06-828, Upstate, lot DAM1503356, concentration: 44.5 μM) 10 nM final • Biotin-cJun (29-67): • sequence: Biotin—[…] […]
The bioluminescent energy transfer was read on the Fusion Alpha Plate reader (Perkin Elmer). […]

Row | SMILES | LPS-induced TNFα release [1] | inhibitory capacity (hJNK1)
1 | CC(C)C[C@H](NC(=O)[C@H](CC(N)=O)NC(=O)[C@H](CC(C)C)NC(=O)[C@@H](NC(=O)[C@@H](C)NC(=O)[C@@H]1CCCN1C(=O)[C@H](CCCNC(=N)N)NC(=O)[C@@H](CCCCN)NC(=O)[C@@H]1CCCN1C(=O)[C@H](CCCNC(=N)N)NC(=O)[C@@H](CCCNC(=N)N)NC(=O)[C@H](CCCNC(=N)N)NC(=O)[C@H](CCCNC(=N)N)NC(=O)[C@H](CCC(N)=O)NC(=O)[C@@H](CCCNC(=N)N)NC(=O)[C@H](CCCNC(=N)N)NC(=O)[C@H](CCCCN)NC(=O)[C@H](CCCCN)NC(=O)[C@H](N)CCCNC(=N)N)[C@@H](C)O)C(=O)N[C@H](Cc1ccccc1)C(N)=O [SEQ ID NO: 172, rKKRrQRRrRPkRPaTLNLf] (H-[dR]KKR[dR]QRR[dR]RP[dK]RP[dA]TLNL[dF]-NH2; N-terminus assumed) | blocks LPS-induced TNFα release | –
2 | CC(C)C[C@@H](NC(=O)[C@@H](Cc1ccccc1)NC(=O)[C@H]1CCCN1C(=O)[C@@H](CCC(N)=O)NC(=O)[C@H](NC(=O)[C@H]1CCCN1C(=O)[C@@H](CCCNC(=N)N)NC(=O)[C@@H](CO)NC(=O)[C@@H](CCC(N)=O)NC(=O)[C@H](N)CC(=O)O)C(C)C)C(=O)N[C@H](CC(N)=O)C(=O)N[C@H](CC(C)C)C(=O)N[C@@H](C(=O)N[C@@H](C(=O)N1CCC[C@@H]1C(=O)N[C@H](CCCNC(=N)N)C(=O)N[C@H](CCCCN)C(=O)N1CCC[C@@H]1C(=O)N[C@H](CCCNC(=N)N)C(=O)N1CCC[C@@H]1C(=O)N1CCC[C@@H]1C(=O)N[C@H](CCCNC(=N)N)C(=O)N[C@H](CCCNC(=N)N)C(=O)N[C@H](CCCNC(=N)N)C(=O)N[C@H](CCC(N)=O)C(=O)N[C@H](CCCNC(=N)N)C(=O)N[C@H](CCCNC(=N)N)C(=O)N[C@H](CCCCN)C(=O)N[C@H](CCCCN)C(=O)N[C@H](CCCNC(=N)N)C(=O)NCC(N)=O)[C@H](C)O)[C@H](C)O [SEQ ID NO: 197, dqsrpvqpflnlttprkprpprrrqrrkkrg, reference compound] (H-[dD][dQ][dS][dR][dP][dV][dQ][dP][dF][dL][dN][dL][dT][dT][dP][dR][dK][dP][dR][dP][dP][dR][dR][dR][dQ][dR][dR][dK][dK][dR]G-NH2) | – | significant decrease in inhibitory capacity
